Source: patent publication US20070197523A1, “CALCIUM CHANNEL ANTAGONISTS” (ICAGEN, INC., priority 2005, published 2007)

System: T-type calcium channels
Assay: T-type calcium channel inhibitory activity (fluorometric FLIPR Fluo-4 and whole cell patch clamp)
Assay type: cell-based, mammalian
Settings: inhibition of T-type calcium channels; cells natively expressing or HEK-293 cells expressing recombinant channels
Experimental: T-type calcium channel inhibitory activity of some compounds of the invention was evaluated using both fluorometric as well as electrophysiological measurement methodologies, which are known to those skilled in the art. Fluorescence measurement of changes in intracellular calcium due to entry of calcium through T-type calcium channels was assessed using calcium sensitive fluorescent dyes Fluo-4 and Fluo-3. In brief, cells natively expressing T-type channels or HEK-293 cells transiently or stably expressing recombinant mammalian T-type calcium channels grown in 96-well tissue culture plates in DMEM/High glucose, Hyclone, Fetal Bovine Serum (10%), and 2 mM sodium pyruvate 2 mM (and for cells lines recombinantly expressing T-type calcium channels, G418 @ 400 mg/liter) were loaded with 4 μM Fluo-4 made up in Earls Balanced Salt Solution (EBSS). After incubation for 30 minutes at room temperature, cells were washed with low calcium (0.5 mM) EBSS to remove extracellular Fluo-4. Baseline fluorescence was measured in a FLIPR (FLuorescence Image Plate Reader) (Molecular Devices Inc) after applying test compounds at desired concentration for 5-10 minutes. The effect of test compound on calcium entry was assessed by monitoring changes in Fluo-4 fluorescence following an elevation of extracellular calcium concentration from 0.5 mM to 5 mM. […] Native cells natively expressing T-type channels or HEK-293 cells transiently or stably expressing recombinant mammalian T-type calcium channels were grown in DMEM/High glucose, Hyclone, Fetal Bovine Serum (10%), 2 mM sodium pyruvate 2 mM (and for cells lines recombinantly expressing T-type calcium channels, G418 @ 400 mg/liter) on glass coverslips in 35 mm tissue culture dishes. Experiments were performed by placing T-type calcium channels expressing cells in a recording chamber perfused with EBSS (which contains (in mM): 132 NaCl, 5.4 KCl, 1.8 CaCl2, 0.8 MgCl2, 10 Hepes, 5 glucose, pH 7.4 with NaOH) on the stage of an inverted microscope. Electrical currents were measured using the whole cell configuration of the patch clamp technique (Axopatch 200B, Axon Instruments (Molecular Devices) (see Hamill et al (1981) Pflugers Arch. 1981 391:85-100) using 2-2.5 MOhm resistance glass pipettes filled with 135 CsF, 5 CsCl, 5 NaCl, 5 EGTA, 10 HEPES, pH 7.3 with CsOH, Osmolarity ˜288 mOsm. Test compound effects were typically assessed under conditions in which approximately half of the available channels were inactivated either by an 8 second conditioning depolarization from a holding potential of −100 mV to a potential ranging from −70 mV to −60 mV or by continually holding the membrane potential at −70 mV. Test compounds were assessed for their ability to reduce the amplitude of the inward T-type calcium current elicited by a 100 ms step depolarization −20 or −30 mV.

Row | IC50 | Molecule
1 | 0.001 to 1 µM | CCOc1cccc(S(=O)(=O)c2cnc(Nc3nc(C)nc(OCCN4CCCC4)c3F)s2)c1 [Example 24, [5-(3-Ethoxy-benzenesulfonyl)-thiazol-2-yl]-[5-fluoro-2-methyl-6-(2-pyrrolidin-1-yl-ethoxy)-pyrimidin-4-yl]-amine]
2 | 0.001 to 1 µM | CCOc1cccc(S(=O)(=O)c2cnc(Nc3nc(C)nc(OCCOC)c3F)s2)c1 [Example 25, N-[5-(3-ethoxy-benzenesulfonyl)-thiazol-2-yl]-[5-fluoro-6-(2-methoxy-ethoxy)-2-methyl-pyrimidin-4-yl]-amine]
3 | 10 to 1000 µM | CCOc1cccc(S(=O)(=O)c2cnc(Nc3nc(C)nc(OCCC4CCCC4)c3F)s2)c1 [Example 26, [6-(2-Cyclopentyl-ethoxy)-5-fluoro-2-methyl-pyrimidn-4-yl]-[5-(3-ethoxy-benzenesulfonyl)-thiazol-2-yl]-amine]
4 | 0.001 to 1 µM | CCOc1cccc(S(=O)(=O)c2cnc(Nc3nc(C)nc(OCCN(C)C)c3F)s2)c1 [Example 27, [6-(2-Dimethylamino-ethoxy)-5-fluoro-2-methyl-pyrimidn-4-yl]-[5-(3-ethoxy-benzenesulfonyl)-thiazol-2-yl]-amine]
5 | 0.001 to 1 µM | CCOc1cccc(S(=O)(=O)c2cnc(Nc3cc(OCCN(C)C)nc(C(F)(F)F)n3)s2)c1 [Example 28, [6-(2-Dimethylamino-ethoxy)-2-trifluormethyl-pyrimidin-4-yl]-[5-(3-Ethoxy-benzenesulfonyl)-thiazol-2-yl]-amine]
6 | 1 to 10 µM | CCOc1cccc(S(=O)(=O)c2cnc(Nc3cc(C#CCOC)nc(C)n3)s2)c1 [Example 29, [5-(3-Ethoxy-benzenesulfonyl)-thiazol-2-yl]-[6-(3-methoxy-prop-1-ynyl)-2-methyl-pyrimidin-4-yl]-amine]
7 | 0.001 to 1 µM | CCOc1cccc(S(=O)(=O)c2cnc(Nc3cc(C#CCN(C)C(=O)OC(C)(C)C)nc(C)n3)s2)c1 [Example 30, (3-{6-[5-(3-Ethoxy-benzenesulfonyl)-thiazol-2ylamino]-2-methyl-pyrimidin-4-yl}-prop-2-ynyl)-methyl-carbamic acid tert-butyl ester]
8 | 0.001 to 1 µM | CCOc1cccc(S(=O)(=O)c2cnc(Nc3cc(C#CC(C)(C)N(C)C(=O)OC(C)(C)C)nc(C)n3)s2)c1 [Example 31, (3-{6-[5-(3-Ethoxy-benzenesulfonyl)-thiazol-2ylamino]-2-methyl-pyrimidin-4-yl}-1,1-dimethyl-prop-2-ynyl)-methyl-carbamic acid tert-butyl ester]
9 | 0.001 to 1 µM | CCOc1cccc(S(=O)(=O)c2cnc(Nc3cc(CCCOC)nc(C)n3)s2)c1 [Example 32, [5-(3-Ethoxy-benzenesulfonyl)-thiazol-2-yl]-[6-(3-methoxy-propyl)-2-methyl-pyrimidin-4-yl]-amine]
10 | 0.001 to 1 µM | CCOc1cccc(S(=O)(=O)c2cnc(Nc3cc(CCC(C)(C)N)nc(C)n3)s2)c1 [Example 36, [6-(3-Amino-3-methyl-butyl)-2-methyl-pyrimidin-4-yl]-[5-(3-ethoxy-benzenesulfonyl)-thiazol-2yl]-amine]

The next lines start with the molecule.

Row | Molecule | IC50
11 | CCOc1cccc(S(=O)(=O)c2cnc(N(CCCN3CCOCC3)c3nc(C)nc(NCCOC)c3F)s2)c1 [Example 15, N-[5-(3-ethoxy-benzenesulfonyl)-thiazol-2-yl]-5-fluoro-N′-(2-methoxy-ethyl)-2-methyl-N-(3′-morpholin-4-yl-propyl)-pyrimidine-4,6-diamine] | 0.001 to 1 µM
12 | CCOc1cccc(S(=O)(=O)c2cnc(Nc3cc(NCCN4CCCC4)nc(C(F)(F)F)n3)s2)c1 [Example 16, N-[5-(3-Ethoxy-benzenesulfonyl)-thiazol-2-yl]-N′-(2-pyrrolidin-1-yl-ethyl)-2-trifluoromethyl-pyrimidine-4,6-diamine] | 0.001 to 1 µM
13 | CCOc1cccc(S(=O)(=O)c2cnc(Nc3cc(NCCOC)nc(C(F)(F)F)n3)s2)c1 [Example 17, N-[5-(3-ethoxy-benzenesulfonyl)-thiazol-2-yl]-N′-(2-methoxy-ethyl)-2-trifluoromethyl-pyrimidine-4,6-diamine] | 0.001 to 1 µM
14 | CCOc1cccc(S(=O)(=O)c2cnc(Nc3cc(NCC(C)(C)N)nc(C(F)(F)F)n3)s2)c1 [Example 18, N-(2-Amino-2-methyl-propyl)-N′-[5-(3-ethoxy-benzenesulfonyl)-thiazol-2-yl]-2-trifluoromethyl-pyrimidine-4,6-diamine] | 0.001 to 1 µM
15 | CCOc1cccc(S(=O)(=O)c2cnc(Nc3cc(NCCN(C)C)nc(C(F)(F)F)n3)s2)c1 [Example 19, N-(2-Dimethylamino-ethyl)-N′-[5-(3-ethoxy-benzenesulfonyl)-thiazol-2-yl]-2-trifluoromethyl-pyrimidine-4,6-diamine] | 0.001 to 1 µM
16 | CCOc1cccc(S(=O)(=O)c2cnc(Nc3cc(OCCN4CCCC4)nc(C)n3)s2)c1 [Example 20, [5-(3-Ethoxy-benzenesulfonyl)-thiazol-2-yl]-[2-methyl-6-(2-pyrrolidin-1-yl-ethoxy)-pyrimidin-4-yl]-amine] | 0.001 to 1 µM
17 | CCOc1cccc(S(=O)(=O)c2cnc(Nc3cc(OC[C@H]4CCCN4)nc(C)n3)s2)c1 [Example 21, N-[5-(3-ethoxy-benzenesulfonyl)-thiazol-2-yl]-[2-methyl-((6R)-1-pyrrolidin-2-yl-methoxy)pyrimidin-4-yl]-amine] | 0.001 to 1 µM
18 | CCOc1cccc(S(=O)(=O)c2cnc(Nc3cc(OC4CCNC4)nc(C)n3)s2)c1 (centres unmarked) [Example 22, N-[5-(3-ethoxy-benzenesulfonyl)-thiazol-2-yl]-[2-methyl-6-(pyrrolidin-3-yloxy)pyrimidin-4-yl]-amine] | 0.001 to 1 µM
19 | CCOc1cccc(S(=O)(=O)c2cnc(Nc3cc(OCCOC)nc(C)n3)s2)c1 [Example 23, N-[5-(3-ethoxy-benzenesulfonyl)-thiazol-2-yl]-[6-(2-methoxy-ethoxy)-2-methyl-pyrimidin-4-yl]-amine] | 0.001 to 1 µM
20 | [5-(3-Ethoxy-benzenesulfonyl)-thiazol-2-yl]-[6-(3-methylamino)propyl)-2-methyl-pyrimidin-4-yl]-amine [Example 35] | 0.001 to 1 µM
